Assay results published in the METLIN SMRT retention time set (Domingo-Almenara et al. 2019).

Test: gradient 5% acetonitrile 3 min, to 50% in 2 min, to 85% in 15 min, held 3 min, 100 µL/min
Conditions: column: Zorbax Extend-C18 2.1 x 50 mm; eluents: water / acetonitrile, 0.1% formic acid
Procedure, shortened: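 Using water and acetonitrile that each contained 0.1% formic acid, mixtures of ~100 pure standards were separated at 100 μL/min on a Zorbax Extend-C18 column (2.1 × 50 mm, 1.8 μm). The HPLC fed a quadrupole time-of-flight mass spectrometer working in positive and negative ionization mode, with dead and dwell volumes of 40 μL and 900 μL. Data were acquired over 3 months. Retention time was read from computationally picked adduct peaks after manual inspection of each.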

## CCOc1ccc(-c2noc(N3CCC(C(=O)N4CCOCC4)CC3)n2)cc1OC
  RP-LC retention time: 736 s

## CN1CCN(C(=O)Cn2cccc2-c2nc(-c3ccccc3)cs2)CC1
  RP-LC retention time: 664 s

## COc1ccc(-c2noc(C3(NC(=O)c4ccc(F)cc4)CCCCC3)n2)cc1
  RP-LC retention time: 1150 s

## COc1cc(OC)c(NC(=O)C2CC(=O)N(c3cccc(NC(C)=O)c3)C2)cc1Cl (stereo not drawn)
  RP-LC retention time: 712 s

## COc1ccc(CN2C=C(C(=O)OCc3c(C)noc3C)C(C)=NS2(=O)=O)cc1
  RP-LC retention time: 934 s

## COc1cccc(S(=O)(=O)N2CCC3(CC2)C(OC)CN3c2cccc(F)c2)c1 (stereo not drawn)
  RP-LC retention time: 1160 s

## COCCN1C(=O)Cc2ccccc2C1C(=O)N1CCN(c2ccccc2Cl)CC1 (stereo not drawn)
  RP-LC retention time: 904 s

## Cc1ccc(CNC(=O)C2(C)CN(S(C)(=O)=O)CC(=O)N2c2cc(C)ccc2C)cc1 (stereo not drawn)
  RP-LC retention time: 898 s

## CN(C)c1cccc(-c2nc(-c3ccc4c(c3)ncn4CCC(=O)N3CCCC3)no2)c1
  RP-LC retention time: 794 s

## COc1ccc2c(c1)C1(CCN(C(=O)c3ccc(C#N)cc3)C1)C(=O)N2C (stereo not drawn)
  RP-LC retention time: 735 s

## Cc1ccc(-n2cc(C(=O)O)nn2)c(F)c1
  RP-LC retention time: 705 s

## CCNC(=O)N1CCCC1c1nc(-c2ccc(OC)cc2)no1 (stereo not drawn)
  RP-LC retention time: 761 s

## Cc1sc(NC(=O)c2ccc(F)cc2)nc1-c1ccc(Br)cc1
  RP-LC retention time: 1240 s

## COc1ccc2[nH]c(=O)c(CCC(=O)NCCCN3CCCC3=O)cc2c1
  RP-LC retention time: 592 s

## CCOC(=O)c1[nH]c(C)c(CCC(=O)N2CCC(C(=O)NCC3CCCO3)CC2)c1C (stereo not drawn)
  RP-LC retention time: 670 s

## Cc1ccc(S(=O)(=O)N2CCCC(Cn3cnc4cccnc43)C2)cc1F (stereo not drawn)
  RP-LC retention time: 802 s

## Cn1nc(C(=O)N2C[C@@H]3C[C@H](NC(=O)c4ccccc4)[C@H]2C3)c2ccccc21
  RP-LC retention time: 788 s

## O=C(Nc1ccc(F)cc1F)Nc1c[nH]c2ccccc12
  RP-LC retention time: 755 s

## CC(C)NC(=O)c1nc(-c2ccnc(N3CCCCC3)c2)no1
  RP-LC retention time: 671 s

## CCCCS(=O)(=O)N1CCN(c2nc(N3CCOCC3)nc(-n3ccnc3)n2)CC1
  RP-LC retention time: 604 s

## O=C(Nc1ccc(Cl)c(Cl)c1)Nc1nc(-c2ccccc2)cs1
  RP-LC retention time: 1220 s

## CCCn1nnnc1NCc1ccc2c(c1)n(C)c(=O)n2C
  RP-LC retention time: 638 s

## C/C=C1\C2C=C(C)C[C@]1(N)c1ccc(=O)[nH]c1C2
  RP-LC retention time: 578 s

## CCOC(=O)c1[nH]c(C)c(CCC(=O)N2CCC(C(=O)N3CCCCCC3)CC2)c1C
  RP-LC retention time: 774 s

## CCCN1CCN(C(=O)CN(C)S(=O)(=O)c2ccc3c(c2)CCCC(=O)N3)CC1
  RP-LC retention time: 577 s

## Cc1ccccc1CNC(=O)c1cn2c(n1)CCCC2
  RP-LC retention time: 762 s

## CC(C)(C)c1noc(-c2ccnc(-n3cnc(C(=O)N4CCOCC4)c3)c2)n1
  RP-LC retention time: 808 s

## COc1ccc(-c2cnc(SCC(=O)Nc3cc(C)on3)n2Cc2ccco2)cc1
  RP-LC retention time: 705 s

## O=C(NCCCn1ccnc1)C1CC(=O)N(CCc2c[nH]c3ccc(Cl)cc23)C1 (stereo not drawn)
  RP-LC retention time: 603 s

## O=c1ccc(-c2ccc(S(=O)(=O)N3CCN(c4ccccn4)CC3)s2)n[nH]1
  RP-LC retention time: 595 s

## Cc1ccc(S(=O)(=O)CCc2noc(-c3cccc4[nH]ccc34)n2)cc1
  RP-LC retention time: 887 s

## OCCN1CCN(CC(O)COCc2ccc(Cl)cc2)CC1 (stereo not drawn)
  RP-LC retention time: 530 s

## CN1C(=O)C(CC(=O)NC2CCCCC2)Sc2ncccc21 (stereo not drawn)
  RP-LC retention time: 703 s
